Marks after values point to notes of the source that are not given here.
test system: not given; assay: not given; details: not given

Row | SMILES | melting point [°C]
1 | Cc1nn(C)c(C(O)c2ccc(F)cc2Cl)c1C1CCCCC1 (stereo not drawn) [Compound 11, α-(2-chloro-4-fluorophenyl)-4-cyclohexyl-1,3-dimethyl-1H-pyrazole-5-methanol] | 171 to 173

test system: Septoria nodorum; assay: Test E: Septoria glume blotch, preventive spray on wheat seedlings, visual disease rating; format: in vivo; details: 200 ppm test suspension
Source text: (§1) General protocol for preparing test suspensions for Tests A-E: the test compounds were first dissolved in acetone in an amount equal to 3% of the final volume and then suspended at the desired concentration (in ppm) in acetone and purified water (50/50 mix by volume) containing 250 ppm of the surfactant Trem® 014 (polyhydric alcohol esters). The resulting test suspensions were then used in Tests A-E. Spraying a 200 ppm test suspension to the point of run-off on the test plants was the equivalent of a rate of 800 g/ha.
The test suspension was sprayed to the point of run-off on wheat seedlings. The following day the seedlings were inoculated with a spore suspension of Septoria nodorum (the causal agent of Septoria glume blotch) and incubated in a saturated atmosphere at 20° C. for 48 h, and then moved to a growth chamber at 20° C. for 9 days, after which time visual disease ratings were made.
(§2) Results for Tests A-E are given in Table A. In the Table, a rating of 100 indicates 100% disease control and a rating of 0 indicates no disease control (relative to the controls). A dash (-) indicates no test results. All results are for 200 ppm except where followed by an asterisk “*” which indicates a 250 ppm test suspension was used or a double asterisk “**” which indicates a 50 ppm test suspension was used.

Row | SMILES | Test E disease control rating [%]
2 | CCCCCCCCc1c(C)nn(C)c1Nc1ccc(F)cc1 [Compound 1] | 0
3 | CCCCCCCCc1c(C)nn(C)c1Nc1ccc(F)cc1Cl [Compound 2] | 0
4 | Cc1nn(C)c(Nc2c(F)cc([N+](=O)[O-])cc2F)c1C1=CCCCC1 [Compound 4] | 0
5 | Cc1nn(C)c(Nc2c(F)cc(N)cc2F)c1C1=CCCCC1 [Compound 5] | 0
6 | Cc1nn(C)c(Nc2c(F)cc(Cl)cc2F)c1C1=CCCCC1 [Compound 6, N-(4-chloro-2,6-difluorophenyl)-4-(1-cyclohexen-1-yl)-1,3-dimethyl-1H-pyrazol-5-amine] | 0
7 | CCC(=O)c1c(C)nn(C)c1Oc1c(F)cccc1F [Compound 7] | 0
8 | Cc1nn(C)c(Nc2c(F)cc(Cl)cc2F)c1C1=CCCC1 [Compound 43] | 0
9 | CCC(O)(CC)c1c(C)nn(C)c1Oc1c(F)cccc1F [Compound 44] | 0
10 | CCCON=C(CC)c1c(C)nn(C)c1Oc1c(F)cccc1F [Compound 45] | 0
11 | Cc1nn(C)c(Nc2c(F)cc(Cl)cc2F)c1C1CCCCC1 [Compound 46, N-(4-chloro-2,6-difluorophenyl)-4-cyclohexyl-1,3-dimethyl-1H-pyrazol-5-amine] | 0
12 | CCC(=NO)c1c(C)nn(C)c1Oc1c(F)cccc1F [Compound 47] | 0

test system: Botrytis cinerea; assay: Test C: tomato Botrytis, preventive spray on tomato seedlings, visual disease rating; format: in vivo; details: 200 ppm test suspension
Source text: as §1
The test suspension was sprayed to the point of run-off on tomato seedlings. The following day the seedlings were inoculated with a spore suspension of Botrytis cinerea (the causal agent of tomato Botrytis) and incubated in a saturated atmosphere at 20° C. for 48 h, and then moved to a growth chamber at 24° C. for 3 days, after which time visual disease ratings were made.
as §2

Row | SMILES | Test C disease control rating [%]
13 | CCCCCCCCc1c(C)nn(C)c1Nc1ccc(F)cc1 [Compound 1] | 0
14 | CCCCCCCCc1c(C)nn(C)c1Nc1ccc(F)cc1Cl [Compound 2] | 0
15 | Cc1nn(C)c(Nc2c(F)cc([N+](=O)[O-])cc2F)c1C1=CCCCC1 [Compound 4] | 92
16 | Cc1nn(C)c(Nc2c(F)cc(N)cc2F)c1C1=CCCCC1 [Compound 5] | 0
17 | Cc1nn(C)c(Nc2c(F)cc(Cl)cc2F)c1C1=CCCCC1 [Compound 6, N-(4-chloro-2,6-difluorophenyl)-4-(1-cyclohexen-1-yl)-1,3-dimethyl-1H-pyrazol-5-amine] | 98
18 | CCC(=O)c1c(C)nn(C)c1Oc1c(F)cccc1F [Compound 7] | 0
19 | Cc1nn(C)c(Nc2c(F)cc(Cl)cc2F)c1C1=CCCC1 [Compound 43] | 0
20 | CCC(O)(CC)c1c(C)nn(C)c1Oc1c(F)cccc1F [Compound 44] | 3
21 | CCCON=C(CC)c1c(C)nn(C)c1Oc1c(F)cccc1F [Compound 45] | 0
22 | Cc1nn(C)c(Nc2c(F)cc(Cl)cc2F)c1C1CCCCC1 [Compound 46, N-(4-chloro-2,6-difluorophenyl)-4-cyclohexyl-1,3-dimethyl-1H-pyrazol-5-amine] | 95
23 | CCC(=NO)c1c(C)nn(C)c1Oc1c(F)cccc1F [Compound 47] | 0

same assay, conditions: 250 ppm test suspension (*)

Row | SMILES | Test C disease control rating
24 | Cc1nn(C)c(C(O)c2ccc(F)cc2Cl)c1C1CCCCC1 (stereo not drawn) [Compound 11, α-(2-chloro-4-fluorophenyl)-4-cyclohexyl-1,3-dimethyl-1H-pyrazole-5-methanol] | 24* %

test system: Septoria tritici; assay: Test B: wheat leaf blotch, preventive spray on wheat seedlings, visual disease rating; format: in vivo; details: 200 ppm test suspension
Source text: as §1
(§3) The test suspension was sprayed to the point of run-off on wheat seedlings. The following day the seedlings were inoculated with a spore suspension of Septoria tritici (the causal agent of wheat leaf blotch) and incubated in a saturated atmosphere at 24° C. for 48 h, and then moved to a growth chamber at 20° C. for 19 days, after which time visual disease ratings were made.
as §2

Row | SMILES | Test B disease control rating [%]
25 | CCCCCCCCc1c(C)nn(C)c1Nc1ccc(F)cc1 [Compound 1] | 0
26 | CCCCCCCCc1c(C)nn(C)c1Nc1ccc(F)cc1Cl [Compound 2] | 0
27 | Cc1nn(C)c(Nc2c(F)cc([N+](=O)[O-])cc2F)c1C1=CCCCC1 [Compound 4] | 93
28 | Cc1nn(C)c(Nc2c(F)cc(N)cc2F)c1C1=CCCCC1 [Compound 5] | 1
29 | Cc1nn(C)c(Nc2c(F)cc(Cl)cc2F)c1C1=CCCCC1 [Compound 6, N-(4-chloro-2,6-difluorophenyl)-4-(1-cyclohexen-1-yl)-1,3-dimethyl-1H-pyrazol-5-amine] | 84
30 | CCC(=O)c1c(C)nn(C)c1Oc1c(F)cccc1F [Compound 7] | 62
31 | Cc1nn(C)c(Nc2c(F)cc(Cl)cc2F)c1C1=CCCC1 [Compound 43] | 92
32 | CCC(O)(CC)c1c(C)nn(C)c1Oc1c(F)cccc1F [Compound 44] | 15
33 | CCCON=C(CC)c1c(C)nn(C)c1Oc1c(F)cccc1F [Compound 45] | 3
34 | Cc1nn(C)c(Nc2c(F)cc(Cl)cc2F)c1C1CCCCC1 [Compound 46, N-(4-chloro-2,6-difluorophenyl)-4-cyclohexyl-1,3-dimethyl-1H-pyrazol-5-amine] | 99
35 | CCC(=NO)c1c(C)nn(C)c1Oc1c(F)cccc1F [Compound 47] | 81

same assay, conditions: 250 ppm test suspension (*)

Row | SMILES | Test B disease control rating
36 | Cc1nn(C)c(C(O)c2ccc(F)cc2Cl)c1C1CCCCC1 (stereo not drawn) [Compound 11, α-(2-chloro-4-fluorophenyl)-4-cyclohexyl-1,3-dimethyl-1H-pyrazole-5-methanol] | 100* %

test system: Blumeria graminis f sp. tritici; assay: Test D: wheat powdery mildew, preventive spray on wheat seedlings, visual disease rating; format: in vivo; details: 200 ppm test suspension
Source text: as §1
The test suspension was sprayed to the point of run-off on wheat seedlings. The following day the seedlings were inoculated with a spore dust of Blumeria graminis f sp. tritici, (also known as Erysiphe graminis f sp. tritici, the causal agent of wheat powdery mildew) and incubated in a growth chamber at 20° C. for 8 days, after which time visual disease ratings were made.
as §2

Row | SMILES | Test D disease control rating [%]
37 | CCCCCCCCc1c(C)nn(C)c1Nc1ccc(F)cc1 [Compound 1] | 63
38 | CCCCCCCCc1c(C)nn(C)c1Nc1ccc(F)cc1Cl [Compound 2] | 0
39 | Cc1nn(C)c(Nc2c(F)cc([N+](=O)[O-])cc2F)c1C1=CCCCC1 [Compound 4] | 0
40 | Cc1nn(C)c(Nc2c(F)cc(N)cc2F)c1C1=CCCCC1 [Compound 5] | 0
41 | Cc1nn(C)c(Nc2c(F)cc(Cl)cc2F)c1C1=CCCCC1 [Compound 6, N-(4-chloro-2,6-difluorophenyl)-4-(1-cyclohexen-1-yl)-1,3-dimethyl-1H-pyrazol-5-amine] | 0
42 | CCC(=O)c1c(C)nn(C)c1Oc1c(F)cccc1F [Compound 7] | 0
43 | Cc1nn(C)c(Nc2c(F)cc(Cl)cc2F)c1C1=CCCC1 [Compound 43] | 0
44 | CCC(O)(CC)c1c(C)nn(C)c1Oc1c(F)cccc1F [Compound 44] | 43
45 | CCCON=C(CC)c1c(C)nn(C)c1Oc1c(F)cccc1F [Compound 45] | 0
46 | Cc1nn(C)c(Nc2c(F)cc(Cl)cc2F)c1C1CCCCC1 [Compound 46, N-(4-chloro-2,6-difluorophenyl)-4-cyclohexyl-1,3-dimethyl-1H-pyrazol-5-amine] | 98

same assay, conditions: 250 ppm test suspension (*)

Row | SMILES | Test D disease control rating
47 | Cc1nn(C)c(C(O)c2ccc(F)cc2Cl)c1C1CCCCC1 (stereo not drawn) [Compound 11, α-(2-chloro-4-fluorophenyl)-4-cyclohexyl-1,3-dimethyl-1H-pyrazole-5-methanol] | 93* %
48 | CCC(=NO)c1c(C)nn(C)c1Oc1c(F)cccc1F [Compound 47] | 89* %

test system: Puccinia recondita f. sp. tritici; assay: Test A: wheat leaf rust, preventive spray on wheat seedlings, visual disease rating; format: in vivo; details: 200 ppm test suspension; 100 = 100% disease control, 0 = no control
Source text: as §1
as §3, with “Puccinia recondita f. sp.” for “Septoria”, “rust)” for “blotch)”, “20°” for “24°”, “24” for “48”, “7” for “19”
as §2

Row | SMILES | Test A disease control rating [%]
49 | CCCCCCCCc1c(C)nn(C)c1Nc1ccc(F)cc1 [Compound 1] | 41
50 | CCCCCCCCc1c(C)nn(C)c1Nc1ccc(F)cc1Cl [Compound 2] | 0
51 | Cc1nn(C)c(Nc2c(F)cc([N+](=O)[O-])cc2F)c1C1=CCCCC1 [Compound 4] | 32
52 | Cc1nn(C)c(Nc2c(F)cc(N)cc2F)c1C1=CCCCC1 [Compound 5] | 0
53 | Cc1nn(C)c(Nc2c(F)cc(Cl)cc2F)c1C1=CCCCC1 [Compound 6, N-(4-chloro-2,6-difluorophenyl)-4-(1-cyclohexen-1-yl)-1,3-dimethyl-1H-pyrazol-5-amine] | 19
54 | CCC(=O)c1c(C)nn(C)c1Oc1c(F)cccc1F [Compound 7] | 0
55 | Cc1nn(C)c(Nc2c(F)cc(Cl)cc2F)c1C1=CCCC1 [Compound 43] | 68
56 | CCC(O)(CC)c1c(C)nn(C)c1Oc1c(F)cccc1F [Compound 44] | 0
57 | CCCON=C(CC)c1c(C)nn(C)c1Oc1c(F)cccc1F [Compound 45] | 0
58 | Cc1nn(C)c(Nc2c(F)cc(Cl)cc2F)c1C1CCCCC1 [Compound 46, N-(4-chloro-2,6-difluorophenyl)-4-cyclohexyl-1,3-dimethyl-1H-pyrazol-5-amine] | 92
59 | CCC(=NO)c1c(C)nn(C)c1Oc1c(F)cccc1F [Compound 47] | 0

same assay, conditions: 250 ppm test suspension (*)

Row | SMILES | Test A disease control rating
60 | Cc1nn(C)c(C(O)c2ccc(F)cc2Cl)c1C1CCCCC1 (stereo not drawn) [Compound 11, α-(2-chloro-4-fluorophenyl)-4-cyclohexyl-1,3-dimethyl-1H-pyrazole-5-methanol] | 86* %

— US20180042234A1, “FUNGICIDAL PYRAZOLES” (E I DU PONT DE NEMOURS AND COMPANY, priority 2015, published 2018)
